Calls of active or inactive are those of the source.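 The calls were made as follows: active = Compounds that kill half the cells at a concentration of 5 micromolar or below, from the fitted or estimated CC50; inactive = CC50 above 5 micromolar.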

The experiment concerns Jurkat E6.1 viability, ATP luminescence, 48 h. The experiment in a line: Jurkat E6.1 cell cytotoxicity, CC50 determination, dose response, cytotoxicity control, ATP luminescence, 48 h, 60K MLSMR (AID 464).
For the molecule `Cn1c(-c2ccccc2)cc2c3no[n+]([O-])c3ccc21`, the CC50 is 2.41 µM.

`N#CC1=C2SCC(O)(c3ccccc3)N2C(=O)CC1c1cccs1` (stereo not given): the CC50 is 0.361 µM.

`Cc1nn(-c2ccccc2)c(C)c1C(=O)Nc1nnc(-c2ccco2)o1`: the CC50 is > 40 µM (inactive).

As for `CN(C)c1ccccc1C(=O)c1ccccc1N(C)C`, the CC50 was 0.743 µM.

For the molecule `COC(=O)Nc1ccc(S(=O)(=O)N2c3ccccc3CCC2C)cc1` (stereo not given), the CC50 was 2.19 µM. Regarding `CC1CCCCC1NS(=O)(=O)c1ccc(S(=O)(=O)NCc2ccncc2)cc1` (stereo not given), the CC50 is 2.37 µM. Turning to `CCOc1ccc(C2=Nn3c(nnc3-c3ccc(OC)cc3)SC2)cc1`, the CC50 is 0.841 µM.

Regarding `CCOC(=O)C1(N(CC)CC)Sc2cc(C)ccc2NC1=O` (stereo not given), the CC50 is 8.81 µM (inactive). The figure for `COc1ccc(N(CC(=O)Nc2cc(Cl)ccc2OC)S(=O)(=O)c2c(C)noc2C)cc1` is 2.97 µM. As for `COc1cccc(C2C=C(c3ccc(OC)cc3OC)Nc3nnnn32)c1` (stereo not given), the CC50 is 18.4 µM (inactive). In the case of `c1ccc2c(c1)[nH]c1c(N3CCCC3)ncnc12` it was 13.3 µM (inactive); in that of `CCc1ccc(CNc2ccc(O)cc2)cc1`, > 40 µM (inactive). On to `CCN(CC)c1ccc2cc(-c3nc4ccccc4n3C)c(=O)oc2c1`, for which the CC50 is 0.32 µM. In the case of `CCOc1ccccc1NC(=O)c1cccc(NC(=O)c2ccco2)c1` it was 1.27 µM. For the molecule `CCc1ccc2oc(-c3cc(N)cc(C)c3O)nc2c1`, the CC50 was > 13 µM (inactive).

With `Cc1cccc(N2CCN(C(=O)c3ccc(CS(=O)(=O)c4ccccc4C)o3)CC2C)c1` (stereo not given), the CC50 is 0.785 µM. For `CC1(C)CC(=O)C2=C(C1)OC1=C(C(=O)CC(C)(C)C1)C2c1ccc(O)cc1O`, the cytotoxic concentration (CC50) was 2.39 µM. As to `Cc1sc(NC(=O)c2ccco2)nc1-c1ccc2c(c1)CC(C)N2C(=O)C1CC1` (stereo not given), the CC50 was 16.3 µM (inactive). With `Cc1ccnc(SCC(=O)Nc2sc3c(c2C#N)CCCC3)n1`, the CC50 was > 40 µM (inactive). For the molecule `COc1ccccc1-c1cc(C(F)(F)F)nc(S(=O)(=O)CCCC(=O)N2CCCCC2C)n1` (stereo not given), the CC50 was 4.22 µM. In the case of `CS(=O)(=O)c1ncc(Cl)c(C(=O)Nc2ccc(N3CCOCC3)cc2)n1`, the CC50 was 2.61 µM.

With `CSCCOC(=O)c1[nH]c2c(c1C)C(=O)CC(c1ccco1)C2` (stereo not given), the CC50 is 1.67 µM. On to `COc1ccccc1NC(=O)N(Cc1ccco1)Cc1cc2ccc(C)c(C)c2[nH]c1=O`, for which the CC50 is 1.81 µM. In the case of `COC(=O)c1cc2ccsc2n1CC(=O)Nc1cc(Cl)ccc1OC`, the CC50 is > 4.4 µM (inactive). Turning to `Cc1onc(-c2ccccc2Cl)c1C(=O)N1CCN(c2cccc(Cl)c2)CC1`, the CC50 was 0.832 µM. Turning to `COc1ccccc1NC(=O)Cc1nn(C)c(=O)c2ccccc12`, the CC50 is 3.35 µM. In the case of `COc1ccccc1-c1nnc(Nc2nc3c(OC)cccc3s2)o1`, the 50% cytotoxic concentration (CC50) is 0.664 µM. For `CCOC(=O)Nc1c(C(=O)OC)[nH]c2cc(OC)ccc12`, the CC50 was 7.94 µM (inactive). For the molecule `Cc1cc(NC(=O)c2cc(-c3ccncc3)nc3c(C)cccc23)no1`, the CC50 is 2.29 µM. Turning to `COc1cccc(C(=O)/C=C/Nc2cc(C)ccc2O)c1`, the CC50 is 2.95 µM.

For `CCOc1ccc(N(CC(=O)Nc2ccccc2C)S(=O)(=O)c2c(C)noc2C)cc1`, the half-maximal cytotoxic concentration (CC50) is 1.35 µM. On to `Cc1ccc(S(=O)(=O)NCc2ccncc2)cc1`, for which the CC50 was 2.87 µM.

In the case of `c1ccc2c(CCNc3ncnc4nc[nH]c34)c[nH]c2c1`, the CC50 was 3.85 µM. For `CCOC(=O)c1[nH]c(C)c(C(=O)Nc2ccccc2C)c1C`, the CC50 was 0.63 µM. Regarding `CCOC(=O)c1[nH]c(C)c(C(=O)Nc2ccc(C)c(F)c2)c1C`, the CC50 is 7.19 µM (inactive). Take `COCCCN(C(C)=O)c1nc(-c2ccc(OC)cc2)cs1`: the CC50 was > 4.4 µM (inactive). In the case of `CN1/C(=C/C(=O)c2nc(S(C)(=O)=O)ncc2Cl)C(C)(C)c2ccccc21`, the CC50 is > 13 µM (inactive). Consider `O=C(c1ccncc1)N(Cc1cc2ccccc2[nH]c1=O)C1CCCCC1`, for which the CC50 was 5.31 µM (inactive). As for `O=C(O)C1CC=CCC1C(=O)Nc1ccc(S(=O)(=O)N2CCCc3ccccc32)cc1` (stereo not given), the CC50 was > 40 µM (inactive).

Turning to `CCN(CC)c1ccc(NC(=O)c2ccccc2F)cc1`, the CC50 is > 4.4 µM (inactive). Turning to `O=C(Nc1nc(-c2nc3ccccc3s2)cs1)c1ccc(S(=O)(=O)N2CCOCC2)cc1`, the CC50 is > 40 µM (inactive). With `CCOC(=O)c1ccc(Oc2cc(C)nc(SC)n2)cc1`, the CC50 was 7.92 µM (inactive). Take `CC(C)(C)n1ncc2c(=O)n(CC(=O)NCc3ccc(F)cc3)cnc21`: the CC50 was 5.13 µM (inactive). On to `Cn1c(C(=O)NCc2cccs2)cc2oc3ccccc3c21`, for which the CC50 is > 40 µM (inactive). As to `Cc1conc1NC(c1cccs1)c1ccc2cccnc2c1O` (stereo not given), the CC50 was > 13 µM (inactive). Take `O=C(NCc1cccnc1)c1c[nH]c2cc3c(cc2c1=O)OCCO3`: the CC50 is 1.09 µM. With `COc1ccccc1-c1nnc2sc(-c3cc4ccccc4o3)nn12`, the CC50 is 0.214 µM. Take `COc1cc(C2C(C#N)=C(C)NC3=C2C(=O)c2ccccc23)cc(OC)c1OC` (stereo not given): the CC50 is 3.48 µM.

In the case of `CCN(CC)c1ccc(-c2nn3c(-c4ccccc4OC)nnc3s2)cc1`, the CC50 was 0.115 µM.

For `CCc1nnc(NC(=O)c2ccc(S(=O)(=O)N(CC(C)C)CC(C)C)cc2)o1`, the CC50 is 29.8 µM (inactive).

For `Cc1sc(NC(=O)c2ccco2)c(C(c2cccnc2)N2CCN(c3ccc(F)cc3)CC2)c1C` (stereo not given), the CC50 is > 40 µM (inactive). As to `CCCCOC(=O)c1[nH]c2c(c1C)C(=O)CC(c1cc(OC)c(OC)c(OC)c1)C2` (stereo not given), the CC50 was 18.7 µM (inactive). As for `Cc1cc(C(=O)N2CCN(c3cccc(Cl)c3)CC2)c(C)o1`, the CC50 was 4.95 µM.

Regarding `Cn1nnnc1SCC(=O)Nc1ccc(Oc2ccc(Cl)cc2)cc1`, the CC50 is 36.8 µM (inactive).

Regarding `CCN(C(=O)c1ccc(C(C)(C)C)cc1)c1nnc(Cn2nnc3ccccc32)s1`, the CC50 is > 40 µM (inactive).

Regarding `CN1c2ccccc2C(C)(C)C12C=Cc1cc(O)ccc1O2` (stereo not given), the CC50 was 10.4 µM (inactive). On to `Cc1ccc2[nH]c(-c3ccccc3)cc(=O)c2c1`, for which the CC50 is 0.324 µM. As to `CCOC(=O)c1c(COc2ccccc2)oc2ccc(O)cc12`, the CC50 was > 40 µM (inactive). As for `Cc1nn(Cc2ccccc2Cl)c(C)c1C(=O)Nc1nnc(C2CC2)s1`, the CC50 was > 40 µM (inactive). As for `CCCCNc1ncnc2c1cnn2-c1ccc(Cl)cc1`, the CC50 was 2.56 µM.

On to `COc1cc(CN2CCN(c3cccc(Cl)c3)CC2)cc(OC)c1OC`, for which the 50% cytotoxic concentration (CC50) was 4.36 µM. `CC(C)Oc1ccccc1C1CC(=O)Nc2cc3c(cc21)OCCO3` (stereo not given): the CC50 is 0.576 µM. Regarding `O=C(NCc1cccs1)c1noc2c1CCCC2`, the CC50 was 7.48 µM (inactive). As for `CC1=C(C)CS(=O)N(S(=O)(=O)c2ccc(Cl)cc2)C1` (stereo not given), the CC50 is 2.96 µM. With `Cc1ccc(Cl)cc1N1CCN(C(=O)COc2ccc(S(=O)(=O)NC(C)C)cc2)CC1`, the CC50 is 6.43 µM (inactive). In the case of `O=C(Nc1ccn(-c2ccccc2)n1)c1ccc(S(=O)(=O)N2CCCCCC2)cc1` it was 19.8 µM (inactive); in that of `Cc1ccccc1-n1ncc2c(SCC(=O)NCc3cccs3)ncnc21`, 5.39 µM (inactive). Consider `Cn1c(=O)c2c(nc(NCc3ccco3)n2C/C=C/c2ccccc2)n(C)c1=O`, for which the CC50 is 9.36 µM (inactive). Take `CCCCNc1cc(C)nc(NCc2ccccc2)n1`: the CC50 was 10.5 µM (inactive). With `Cc1cc(N2CCN(c3nc4ccccc4s3)CC2)n2ncnc2n1`, the CC50 is 8.41 µM (inactive).

With `Cc1ccsc1C=Nc1ccc(O)cc1`, the CC50 was 39.3 µM (inactive). For `Cc1cc(C(=O)CSc2nnc(-c3cccc(F)c3)n2N)c(C)n1Cc1ccc2c(c1)OCO2`, the CC50 is 9.37 µM (inactive). In the case of `O=C(Cc1n[nH]c(=O)c2ccccc12)OCC(=O)c1ccc2c(c1)OCCO2` it was 3.4 µM; in that of `Cc1cccc(OCC(=O)Nc2cc(C)ccc2O)c1`, 5.78 µM (inactive); in that of `O=C(Nc1nc(-c2ccccn2)cs1)c1ccc(S(=O)(=O)N2CCCCC2)cc1`, 8.99 µM (inactive).

Turning to `On1onc2c3cc(-c4ccccc4)nc3ccc21`, the CC50 is 3.9 µM. `CCOC(=O)C1CCN(C(c2cccnc2)c2c(NC(=O)c3ccco3)sc(C)c2C)CC1` (stereo not given): the CC50 was > 40 µM (inactive). In the case of `CCc1nnc(NC(=O)CSc2nc3cccnc3n2C2CCCCC2)s1` it was > 40 µM (inactive); in that of `COc1ccccc1-n1cnc(N)c1C(=O)c1ccccc1`, > 4.4 µM (inactive). Regarding `COc1cccc(C(=O)Nc2ncc3c(n2)CC(c2ccc(OC)cc2OC)CC3=O)c1` (stereo not given), the CC50 is 8.19 µM (inactive). Turning to `N=c1c2c(n(Cc3ccccc3)c3c1CCC3)CCC2`, the CC50 is 3.66 µM.

With `CCCOc1ccccc1C1CC(=O)NC2=C1C(=O)CCC2` (stereo not given), the CC50 was 1.52 µM. The figure for `CCOC(=O)c1c(C)c(C(=O)Nc2cc(F)ccc2F)c(C)n1C` is 6.52 µM (inactive). In the case of `C=CCOC(=O)c1[nH]c2c(c1C)C(=O)CC(c1ccco1)C2` (stereo not given) it was 0.196 µM. The figure for `CCCOc1ccc2ccccc2c1/C=N/n1c(C)nnc1-n1nc(C)cc1C` is 1.96 µM.

As to `N#Cc1c(NCc2ccccc2)ccnc1NCc1cccnc1`, the CC50 is 4.17 µM.

With `CCOC(=O)/C=C/S(=O)(=O)c1ccc(NC(C)=O)cc1`, the 50% cytotoxic concentration (CC50) was 3.21 µM. In the case of `O=C(Nc1ccc2oc(Cc3ccc(Cl)cc3)nc2c1)c1cccnc1` it was 27.8 µM (inactive); in that of `Cc1[nH]c2c(C(F)(F)F)cccc2c1CCN`, 10.4 µM (inactive); in that of `CCC/C(O)=C1\C(=O)CC(C)(C)CC1=Nc1ccc(OC)cc1OC`, 1.78 µM.

Take `CCOC(=O)N1CCN(C(=O)c2ccccc2-c2ccccc2)CC1`: the CC50 is 1.91 µM. Take `c1ccc(-c2noc(-c3ccc4c(c3)OCO4)n2)nc1`: the CC50 is 2.75 µM.

For the molecule `O=C(Cn1cnc2sc(-c3ccccc3)cc2c1=O)NCc1ccco1`, the CC50 was 6 µM (inactive).

Turning to `C(=C\c1ccccc1)/CSc1nnc(-c2ccccn2)n1Cc1ccco1`, the CC50 was 2.28 µM. Consider `CCC(C)c1ccc(NC(=O)C2CCCN(c3ncccn3)C2)cc1` (stereo not given), for which the CC50 was 10.4 µM (inactive).

A word on the CC50: it is the concentration at which the toxic effect on the cells reaches its halfway point.

The values above are taken from PubChem BioAssay AID464 (The Scripps Research Institute Molecular Screening Center, 2006).
